Test results reported in patent US7109364B2, “Group of anti-cancer compounds with specific structure and their production method” (priority 2000, dated 2006).
Converted amounts (≈) assume the structure as drawn. Where two headings read alike, the source gives them in different places.

Tests used:
[1] = tested on: K562 human leukemia cell line; assay: In vitro anti-cancer efficacy, K562, trypan blue dye exclusion, 48 hours; type: cell-based; conditions: for IC50 / IC90: Homo sapiens, K562; for IC50: read-out: K562 IC50; for IC90: read-out: K562 IC90
Experimental: (§1) The above compounds were dissolved in DMSO at stock concentration of 10 mg/ml and stored at 4° C. Before each experiment they were diluted to desired concentration with serum-free RPMI 1640 medium
1. K562 human leukemia cell line: K562 cells were maintained in RPMI 1640 medium with 5% fetal bovine serum at 37° C. under 5% CO2 atmosphere. 4×10^4 cells/well were plated on 96-well plate. After treatment with the test compounds and solvent control (DMSO) for 48 hours, numbers of live cells were counted by trypan blue dye exclusion.
(§2) Reagents and Methods: same as in Experiment 1.

[2] = tested on: B16 mouse melanoma cell line; assay: In vitro anti-cancer efficacy, B16, SRB method, 48 hours; type: cell-based; conditions: for IC50 / IC90: Mus musculus; for IC50: read-out: B16 IC50; for IC90: read-out: B16 IC90
Experimental: as §1
2. B16 mouse melanoma cell line: B16 cells were maintained under the same condition as above. 2×10^4 cells/well were plated on 48-well plate and left for 12 hours for attachment. Cells were then treated with the test compounds and solvent control for 48 hours. Numbers of live cells were determined by SRB method. Briefly, cells were fixed with 50 μl/well 15% TCA for 1 hour, and then washed three times with double-distilled water. After drying 50 μl/well 1% SRB dye was added and reacted for 10 minutes. Plate was washed with 1% acetic acid. 0.2 ml Tris buffer (pH 9.6) was added and OD510 was recorded.
as §2

[3] = Table 2, unit inferred, methods same as in Experiment 1

| Compound | IC50 ([1]; Table 1, 48 hours) [µg/mL] | IC90 ([1]; Table 1, 48 hours) [µg/mL] | IC50 ([2]; Table 1, 48 hours) [µg/mL] | IC90 ([2]; Table 1, 48 hours) [µg/mL] | K562 IC50 ([1]; Table 1, 48 hours) [µg/mL] | K562 IC90 ([1]; Table 1, 48 hours) [µg/mL] | B16 IC50 ([2]; Table 1, 48 hours) [µg/mL] | B16 IC90 ([2]; Table 1, 48 hours) [µg/mL] | other results |
| --- | --- | --- | --- | --- | --- | --- | --- | --- | --- |
| CCN(CC)C(=O)CCCCCCCCCCCC(C)C [Compound 13, N,N-Diethyl-13-methyl-tetradecanamide] | 9.1 (≈ 30.6 µM) | 42.4 (≈ 143 µM) | 19.3 (≈ 64.9 µM) | 31.9 (≈ 107 µM) |  |  |  |  |  |
| CC(C)CCCCCCCCCCCC(=O)N1CCCCC1 [Compound 14, N-(13-Methyltetradecanoyl)piperidine] | 18.4 (≈ 59.4 µM) | 38.5 (≈ 124 µM) | 17.2 (≈ 55.6 µM) | 33.7 (≈ 109 µM) |  |  |  |  |  |
| CC(C)CCCCCCCCCCCC(=O)N1CCCC1 [Compound 15, N-(13-Methyl-tetradecanoyl)pyrrolidine] | 16.2 (≈ 54.8 µM) | 25 (≈ 84.6 µM) | 13.1 (≈ 44.3 µM) | 17.3 (≈ 58.5 µM) |  |  |  |  |  |
| CC(C)CCCCCCCCCCCC(=O)N1CCOCC1 [Compound 16, N-(13-Methyl-tetradecanoyl)morpholine] | 15.9 (≈ 51 µM) | 20.4 (≈ 65.5 µM) | 11.9 (≈ 38.2 µM) | 19.2 (≈ 61.6 µM) |  |  |  |  |  |
| CC(C)CCCCCCCCCCC(=O)c1ccc(O)cc1O [Compound 18, (2,4,-dihydroxy phenyl)-12-methyl tridecanone] |  |  |  |  | 6.42 | 8.90 | 5.91 | 8.12 |  |
| CC(C)CCCCCCCCCCCCc1ccc(O)cc1O [Compound 21, (13-Methyl tetradecyl)-2,4-dihydroxy phene] |  |  |  |  | 3.62 | 5.25 | 3.22 | 5.14 |  |
| CC(C)(C)CCCCCCCCCCCCc1ccc(O)cc1O [Compound 22, (13,13-Dimethyl tetradecyl)-2,4-dihydroxy phene] |  |  |  |  | 3.92 | 5.36 | 3.63 | 5.42 |  |
| CCC(C)CCCCCCCCCCCc1ccc(O)cc1O (stereo not drawn) [Compound 23, (12-Methyl tetradecyl)-2,4-dihydroxy phene] |  |  |  |  | 9.51 | 14.6 | 8.81 | 13.8 |  |
| CC(C)CCCCCCCCCCCCc1ccc(O)c(O)c1O [Compound 24, (13-Methyl tetradecyl)-2,3,4-trihydroxy phene] |  |  |  |  | 13.6 | 19.2 | 12.8 | 19.5 |  |
| CC(C)CCCCCCCCCCCNc1ccc(S(=O)(=O)O)cc1 [Compound 25, N-(12-Methyltridecyl)-4-amino benzenesulfonic acid] | 15.1 (≈ 40.9 µM) | 20 (≈ 54.1 µM) | 13.5 (≈ 36.5 µM) | 18.8 (≈ 50.9 µM) |  |  |  |  |  |
| CC(C)CCCCCCCCCCCNc1ccc(O)c(O)c1 [Compound 26, N-(12-Methyl-tridecyl)-4-amino-1,2-benzenediol] | 6.73 (≈ 20.9 µM) | 13.5 (≈ 42 µM) | 5.81 (≈ 18.1 µM) | 12.6 (≈ 39.2 µM) |  |  |  |  |  |
| CC(C)CCCCCCCCCCC(Br)C(=O)O (stereo not drawn) [Compound 27, 2-Bromo-13-methyl-tetradecanoic acid] | 7.21 (≈ 22.4 µM) | 10.1 (≈ 31.4 µM) | 6.1 (≈ 19 µM) | 11.2 (≈ 34.9 µM) |  |  |  |  |  |
| CC(C)CCCCCCCCCCC(N)C(=O)O (stereo not drawn) [Compound 28, 2-Amino-13-methyl-tetradecanoic acid] | 19.7 (≈ 76.5 µM) | 28.6 (≈ 111 µM) | 17.4 (≈ 67.6 µM) | 25.3 (≈ 98.3 µM) |  |  |  |  |  |
| CC(C)CCCCCCCCCCCCNc1ccc(O)c(O)c1 [Compound 32, N-(13-Methyltetradecyl)-4-amino-1,2-benzenediol] | 6.31 (≈ 18.8 µM) | 11.5 (≈ 34.3 µM) | 5.75 (≈ 17.1 µM) | 10.6 (≈ 31.6 µM) |  |  |  |  |  |
| CC(C)CCCCCC=CC(=O)O [Compound 33, 9-Methyl-2-decenoic acid] | 51.2 (≈ 278 µM) |  |  |  |  |  |  |  | IC50 [1, 3]: 26.7 µg/mL (≈ 145 µM); IC90 [1, 3]: 51.2 µg/mL (≈ 278 µM); IC50 [2, 3]: 40.5 µg/mL (≈ 220 µM); IC90 [2, 3]: 91 µg/mL (≈ 494 µM) |
| (2,3,4-Trihydroxy phenyl)-12-methyl tridecanone [Compound 20] |  |  |  |  | 15.3 | 20.2 | 14.8 | 19.32 |  |
| (2,4,6-Trihydroxyphenyl)-12-methyl tridecanone [Compound 19] |  |  |  |  | 5.13 | 6.80 | 4.93 | 6.11 |  |
